Measured values: US8486398B2, “Anticoagulant antidotes comprising antibodies that bind dabigatran and/or related compounds” (Boehringer Ingelheim International GmbH, priority 2010, dated 2013)
Where “and” joins values, the source holds several entries; their conditions need not be identical. Equal values may be shown once. Read-outs that look alike come from different tables or passages of the source.

Key:
thrombin = thrombin (Bos taurus, UniProt P00735)
Experimental: Briefly human plasma is obtained by taking whole blood into 3.13% sodium citrate. This is then centrifuged to obtain platelet free plasma and transferred to a separate tube and frozen until required on the day of the assay. Plasma is thawed at 37° C. on the day of the assay.
The thrombin clotting time is performed as follows. First thrombin is diluted to manufacturer's specification (3 IU/mL thrombin) in the buffer provided (Dade Behring Test kit) and prewarmed to 37° C. It is used within 2 hrs of being prepared. All assays were performed on a commercially available CL4 clotting machine (Behnk Electronics, Norderstadt, Germany). Fifty μL of plasma is pipetted into provided cuvettes with a magnetic stirrer and allowed to stir for 2 min in the well preheated to 37° C. in the CL4 machine. At this point 100 μL of the thrombin solution is added and the time required for the plasma sample to clot is recorded automatically by the CL4. Dabigatran is preincubated for 5 min in plasma in the provided cuvettes, before adding thrombin and starting the measurement. If antibody is also tested (up 50 μL of stock solution), there is a further 5 minute incubation at 37° C. before beginning clotting (i.e. 10 min total incubation with dabigatran, 5 min total incubation with antibody and then clotting is initiated with thrombin).

[1] = compared with dabigatran; cited from earlier work

Compound | thrombin clotting time (thrombin; 200 nM dabigatran preincubated with human plasma, baseline 10.9-11 seconds) | elevation in clotting time over baseline (thrombin; 200 nM dabigatran, human plasma) [fold] | increase in clotting time over baseline (thrombin; 500 nM dabigatran, human plasma) [fold] | thrombin clotting time (thrombin; 500 nM dabigatran, human plasma, baseline 10.9 seconds) [s] | concentration dependence of thrombin clotting time (thrombin; increasing concentrations of dabigatran, human plasma) | prolongation of the activated partial thromboplastin time [1]
Cn1c(CNc2ccc(C(=N)N)cc2)nc2cc(C(=O)N(CCC(=O)O)c3ccccn3)ccc21 [dabigatran, N-[2-(4-Amidinophenylaminomethyl)-1-methyl-1H-benzimidazol-5-ylcarbonyl]-N-(2-pyridyl)-beta-alanine] | 51 s and 63.7 s | ~5 | ~10 | 111.7 | concentration-dependent increase in the thrombin clotting time | –
Cn1c(CNc2ccc(C(=N)N)cc2)nc2cc(C(=O)N(CCC(=O)OC3OC(C(=O)O)C(O)C(O)C3O)c3ccccn3)ccc21 (stereo not drawn) [1-O-acylglucuronide] | – | – | – | – | – | equipotent prolongation of the activated partial thromboplastin time compared with dabigatran
